Data taken from US9127005B2, “Isoform selective phospholipase D inhibitors” (Vanderbilt University, priority 2009, dated 2015).

What was measured:
[1] = target: T1, PLD1 (Homo sapiens (Human), UniProt Q13393); assay: Cellular CRCs: PLD1 response in Calu-1 cells; format: cell-based
Source text: In some aspects PLD activity in the cell is mediated predominately by PLD1. Thus, in some aspects, the cell is the human non-small-cell lung cancer (NSCLC) cell line Calu-1. In some aspects, the cell has been stimulated to activate PLD1 in the cell. For example, the cell can be stimulated with phorbol 12-myristate 13-acetate (PMA).

[2] = target: T2, PLD2 (Homo sapiens (Human), UniProt O14939); assay: Cellular CRCs: PLD2 response in HEK293gfpPLD2 (293-PLD2) cells; format: cell-based; settings: for Fold Selective: cellular CRCs, selectivity for PLD2 (293-PLD2) over PLD1 (Calu-1)
T2 sequence (O14939 whole entry): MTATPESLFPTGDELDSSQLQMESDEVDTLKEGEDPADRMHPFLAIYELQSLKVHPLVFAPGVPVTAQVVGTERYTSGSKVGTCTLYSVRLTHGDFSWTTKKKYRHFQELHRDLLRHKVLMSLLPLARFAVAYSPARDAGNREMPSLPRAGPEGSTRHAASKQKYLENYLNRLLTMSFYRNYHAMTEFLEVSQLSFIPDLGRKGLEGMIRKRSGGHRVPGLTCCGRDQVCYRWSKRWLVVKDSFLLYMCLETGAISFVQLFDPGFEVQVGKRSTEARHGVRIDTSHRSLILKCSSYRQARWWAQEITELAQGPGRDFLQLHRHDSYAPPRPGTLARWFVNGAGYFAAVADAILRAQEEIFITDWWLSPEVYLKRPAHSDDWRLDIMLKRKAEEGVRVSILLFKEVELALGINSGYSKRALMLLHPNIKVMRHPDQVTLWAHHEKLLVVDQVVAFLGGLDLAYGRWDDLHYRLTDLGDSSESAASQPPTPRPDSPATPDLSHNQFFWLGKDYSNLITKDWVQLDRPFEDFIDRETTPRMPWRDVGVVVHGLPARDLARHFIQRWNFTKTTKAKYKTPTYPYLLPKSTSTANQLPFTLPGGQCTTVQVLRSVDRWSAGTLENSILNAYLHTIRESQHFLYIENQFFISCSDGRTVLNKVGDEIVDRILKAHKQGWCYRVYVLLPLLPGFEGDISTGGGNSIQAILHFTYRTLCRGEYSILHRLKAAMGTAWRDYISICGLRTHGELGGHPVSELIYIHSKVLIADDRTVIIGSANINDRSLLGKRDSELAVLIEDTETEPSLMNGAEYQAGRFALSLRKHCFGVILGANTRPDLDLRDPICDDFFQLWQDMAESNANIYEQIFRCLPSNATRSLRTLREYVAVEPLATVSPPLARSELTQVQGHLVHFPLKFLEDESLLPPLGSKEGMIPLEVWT
Source text: In some aspects PLD activity in the cell is mediated predominately by PLD2. Thus, in some aspects, the cell stably overexpresses recombinant PLD2. For example, the cell can be a HEK293 cell stably overexpressing green florescent protein (GFP)-tagged PLD2.

[3] = target: T2, PLD2; assay: Exogenous CRCs: in vitro PLD2 response; format: biochemical
Source text: (§1) The screening method can comprise providing a sample comprising a phosholipid and a PLD under conditions that allow the hydrolysis of the phospholipids to a phosphatidic acid, contacting the sample with a candidate agent, measuring enzymatic activity, comparing the enzymatic activity to a control, a decrease in enzymatic activity compared to the control identifying an agent that inhibits the PLD.
(§2) In some aspects, the PLD is a myr-Aff-1-stimulated mammalian human PLD1 or human PLD2.

[4] = target: T1, PLD1; assay: Exogenous CRCs: in vitro PLD1 response; format: biochemical
Source text: as §1, §2

[5] = Calu-1 cells (PLD1), read-out: Cellular CRCs Calu-1 IC50
[6] = HEK293 cells overexpressing GFP-tagged PLD2, read-out: Cellular CRCs 293-PLD2 IC50
[7] = exogenous (in vitro) PLD2, read-out: Exogenous CRCs PLD2 IC50

T1 sequence (Q13393 whole entry): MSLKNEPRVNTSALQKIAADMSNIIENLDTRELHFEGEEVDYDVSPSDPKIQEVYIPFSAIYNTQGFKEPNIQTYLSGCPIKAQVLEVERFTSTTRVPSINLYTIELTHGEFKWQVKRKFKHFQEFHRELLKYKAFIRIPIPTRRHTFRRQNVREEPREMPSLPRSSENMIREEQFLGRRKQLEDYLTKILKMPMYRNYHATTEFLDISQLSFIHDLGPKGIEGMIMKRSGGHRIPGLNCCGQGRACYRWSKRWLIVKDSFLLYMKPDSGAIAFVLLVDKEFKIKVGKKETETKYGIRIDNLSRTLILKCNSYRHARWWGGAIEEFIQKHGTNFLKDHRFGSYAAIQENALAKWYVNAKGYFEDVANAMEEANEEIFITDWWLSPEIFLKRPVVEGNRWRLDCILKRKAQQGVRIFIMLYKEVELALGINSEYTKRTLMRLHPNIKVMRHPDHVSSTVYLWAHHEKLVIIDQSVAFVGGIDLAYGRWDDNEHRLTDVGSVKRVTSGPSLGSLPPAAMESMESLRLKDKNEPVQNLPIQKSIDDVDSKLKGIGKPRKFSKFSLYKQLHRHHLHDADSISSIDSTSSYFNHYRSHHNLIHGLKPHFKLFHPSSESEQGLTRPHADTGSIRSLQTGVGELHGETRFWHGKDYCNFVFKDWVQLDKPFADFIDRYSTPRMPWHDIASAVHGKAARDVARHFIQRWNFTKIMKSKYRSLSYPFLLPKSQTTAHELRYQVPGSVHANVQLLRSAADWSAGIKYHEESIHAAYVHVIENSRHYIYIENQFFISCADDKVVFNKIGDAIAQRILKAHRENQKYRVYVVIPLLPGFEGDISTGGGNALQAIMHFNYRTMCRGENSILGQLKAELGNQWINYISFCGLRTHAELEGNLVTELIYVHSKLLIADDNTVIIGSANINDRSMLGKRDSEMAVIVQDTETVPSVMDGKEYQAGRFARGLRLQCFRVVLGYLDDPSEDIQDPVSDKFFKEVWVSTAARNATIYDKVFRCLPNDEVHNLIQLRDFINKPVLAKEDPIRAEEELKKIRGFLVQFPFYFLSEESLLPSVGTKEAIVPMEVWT

Molecule	IC50 [1, 5] [nM]	IC50 [2] [nM]	IC50 [2, 6] [nM]	further results
C[C@@H](CN1CCC2(CC1)C(=O)NC[C@@H]2c1ccc(F)cc1)NC(=O)C#Cc1ccccc1 [NGF, N—((S)-1-((R)-4-(4-Fluorophenyl)-1-oxo-2,8-diazaspiro[4.5]decan-8-yl)propan-2-yl)-3-phenylpropiolamide 2,2,2-trifluoroacetate]	16	150	–	–
O=C(C#Cc1ccccc1)NCCN1CCC2(CC1)C(=O)NC[C@@H]2c1ccc(F)cc1.O=C(O)C(F)(F)F [P0Q, (R)-N-(2-(4-(4-fluorophenyl)-1-oxo-2,8-diazaspiro[4.5]decan-8-yl)ethyl)-3-phenylpropiolamide 2,2,2-trifluoroacetate]	–	70	–	IC50 [1]: 1200 nM; Fold Selective [2]: 17-fold PLD2
C[C@@H](CN1CCC2(CC1)C(=O)NC[C@@H]2c1ccc(F)cc1)NC(=O)C1C[C@H]1c1ccccc1 (stereo partly drawn) [P0A, trans-N-((S)-1-((R)-4-(4-fluorophenyl)-1-oxo-2,8-diazaspiro[4.5]decan-8-yl)propan-2-yl)-2-phenylcyclopropane-carboxamide 2,2,2-trifluoroacetate]	600	–	14000	–
C[C@@H](CN1CCC2(CC1)C(=O)NCC2c1ccc(F)cc1)NC(=O)C1C[C@H]1c1ccccc1 (stereo partly drawn) [NGQ, trans-N-((S)-1-((S)-4-(4-fluorophenyl)-1-oxo-2,8-diazaspiro[4.5]decan-8-yl)propan-2-yl)-2-phenylcyclopropane-carboxamide 2,2,2-trifluoroacetate]	3000	–	> 20000	–
C[C@@H](CN1CCC2(CC1)C(=O)NC[C@@H]2c1ccc(F)cc1)NC(=O)c1ccc(F)cc1 [NGH, 4-fluoro-N-((S)-1-((R)-4-(4-fluorophenyl)-1-oxo-2,8-diazaspiro[4.5]deean-8-yl)propan-2-yl)benzamide 2,2,2-txifluoroacetate]	–	210	–	IC50 [1]: 250 nM; IC50 [3]: 2240 nM
O=C(NCCN1CCC2(CC1)C(=O)NC[C@@H]2c1ccc(F)cc1)C1C[C@H]1c1ccccc1.O=C(O)C(F)(F)F (stereo partly drawn) [P1E, trans-N-(2-((R)-4-(4-fluorophenyl)-1-oxo-2,8-diazaspiro[4.5]decan-8-yl)ethyl)-2-phenylcyclopropane-carboxamide 2,2,2-trifluoroacetate]	6100	–	760	Fold Selective [2]: 8-fold PLD2
O=C(NCCN1CCC2(CC1)C(=O)NC[C@H]2c1ccc(F)cc1)c1ccc2ccccc2c1.O=C(O)C(F)(F)F [P22, (S)-N-(2-(4-(4-fluorophenyl)-1-oxo-2,8-diazaspiro[4.5]decan-8-yl)ethyl)-2-naphthamide 2,2,2-trifluoroacetate]	820	–	26	Fold Selective ([2]; trifluoroacetate): 32-fold PLD2; IC50 [4]: 3900 nM; IC50 [3, 7]: 73 nM
O=C(NCCN1CCC2(CC1)C(=O)NC[C@@H]2c1ccc(F)cc1)c1cc2ccccc2[nH]1.O=C(O)C(F)(F)F [P23, (R)-N-(2-(4-(4-fluorophenyl)-1-oxo-2,8-diazaspiro[4.5]decan-8-yl)ethyl)-1H-indole-2-carboxamide 2,2,2-trifluoroacetate]	–	2.5	–	IC50 [1]: 21 nM; Fold Selective [2]: 8 fold PLD2
C[C@@H](CN1CCC2(CC1)C(=O)NC[C@H]2c1ccc(F)cc1)NC(=O)C#Cc1ccccc1 [NJ5, N-((S)-1-((S)-4-(4-fluorophenyl)-1-oxo-2,8-diazaspiro[4.5]decan-8-yl)propan-2-yl)-3-phenylpropiolamide 2,2,2-trifluoroacetate]	320	4000	–	–
4-fluoro-N-((S)-1- ((S)-4-(4- fluorophenyl)-1-oxo- 2,8- diazaspiro[4.5]decan- 8-yl)propan-2- yl)benzamide 2,2,2- trifluoroacetate [P2B]	1700	–	2800	IC50 [4]: 5150 nM; IC50 [3, 7]: 9440 nM
C[C@@H](CN1CCC2(CC1)C(=O)NC[C@H]2c1ccc(F)cc1)NC(=O)c1ccc2ccccc2c1 [P1Q, N-((S)-1-((S)-4-(4-fluorophenyl)-1-oxo-2,8-diazaspiro[4.5]decan-8-yl)propan-2-yl)-2-naphthamide 2,2,2-trifluoroacetate]	93	–	540	–
O=C(NCCN1CCC2(CC1)C(=O)NC[C@H]2c1ccc(F)cc1)c1ccc2ccccc2c1.O=C(O)C(F)(F)F [P1D]	3700	–	220	Fold Selective [2]: 17-Fol PLD2 fold
C[C@@H](CN1CCC2(CC1)C(=O)NC[C@@H]2c1ccc(F)cc1)NC(=O)c1cc2ccccc2[nH]1 [P1G, N-((S)-l-((R)-4-(4-fluorophenyl)-1-oxo-2,8-diazaspiro[4.5]decan-8-yl)propan-2-yl)-1H-indole-2-carboxamide 2,2,2-trifluoroacetate]	–	12	–	IC50 [1]: 1 nM
C[C@@H](CN1CCC2(CC1)C(=O)NC[C@H]2c1ccc(F)cc1)NC(=O)c1cc2ccccc2[nH]1 [NG3, N-((S)-1-((S)-4-(4-fluorophenyl)-1-oxo-2,8-diazaspiro[4.5]decan-8-yl)propan-2-yl)-1H-indole-2-carboxamide 2,2,2-trifluoroacetate]	16	140	–	–
